Test results taken from the supplement of paper PMC9663587.

How the values were obtained:
Test in all cases: area over the GR curve, 72 h; higher = more effect;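 also: Dye Drop or Deep Dye Drop imaging of viable cells in 384-well plates (Hoechst nuclei, LIVE/DEAD dye), nine half-log doses, GR normalized to DMSO controls and time-zero plates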
MDAMB175VII = system: MDAMB175VII
MDAMB330 = system: MDAMB330
MDAMB453 = system: MDAMB453
BT20 = system: BT20
MGH312 = system: MGH312
MDAMB231 = system: MDAMB231
EFM19 = system: EFM19
HCC38 = system: HCC38
HCC70 = system: HCC70
HCC1806 = system: HCC1806
UACC812 = system: UACC812
184A1 = system: 184A1
CAMA1 = system: CAMA1

| SMILES | area over the GR curve (MDAMB175VII) | area over the GR curve (MDAMB330) | area over the GR curve (MDAMB453) | area over the GR curve (BT20) | area over the GR curve (MGH312) | area over the GR curve (MDAMB231) | area over the GR curve (EFM19) | area over the GR curve (HCC38) | area over the GR curve (HCC70) | area over the GR curve (HCC1806) | area over the GR curve (UACC812) | area over the GR curve (184A1) | area over the GR curve (CAMA1) |
| --- | --- | --- | --- | --- | --- | --- | --- | --- | --- | --- | --- | --- | --- |
| COc1ccc2c(c1)[C@]1(C[C@H]1c1ccc3c(/C=C/c4ccc(CN5C[C@@H](C)O[C@@H](C)C5)cc4)n[nH]c3c1)C(=O)N2 | 0.589 GR | 0.438 GR | 0.537 GR | 1.07 GR | 1.19 GR | 0.765 GR | 0.397 GR | 0.852 GR | 1.11 GR | 0.94 GR | 0.524 GR | 0.668 GR | 0.587 GR |
| COc1cccc(OCCCN)c1-c1cc(Nc2cnc(C#N)cn2)n[nH]1 | 0.245 GR | 0.718 GR | 0.843 GR | 0.973 GR | 0.0934 GR | 1.09 GR | 0.041 GR | 0.858 GR | 1.64 GR | 1.39 GR | 0.0047 GR | 0.0009 GR | 0.483 GR |
| CC(=O)Nc1cccc(-n2c(=O)n(C3CC3)c(=O)c3c(Nc4ccc(I)cc4F)n(C)c(=O)c(C)c32)c1 (max 1 µM) | 0.938 GR | 0.218 GR | 0.279 GR | 0.176 GR | -0.169 GR | 0.722 GR | -0.1 GR | 0.207 GR | 0.692 GR | 0.104 GR | 0.686 GR | 0.659 GR | 0.169 GR |
| CCc1cnn2c(NCc3ccc[n+]([O-])c3)cc(N3CCCC[C@H]3CCO)nc12 (max 1 µM) | 0.607 GR | 0.101 GR | 0.578 GR | 0.672 GR | 0.867 GR | 0.663 GR | 0.459 GR | 0.62 GR | 0.803 GR | 0.643 GR | 0.151 GR | 0.636 GR | 0.606 GR |
| CC(=O)c1c(C)c2cnc(Nc3ccc(N4CCNCC4)cn3)nc2n(C2CCCC2)c1=O (max 3.162 µM) | 0.763 GR | 0.47 GR | 0.437 GR | 0.39 GR | -0.129 GR | 0.345 GR | 0.179 GR | 0.371 GR | -0.0552 GR | 0.146 GR | 0.609 GR | 0.375 GR | 0.353 GR |
| CCc1cncnc1N1CCN(Cc2nc3ccc(C(F)(F)F)cc3[nH]2)CC1 (max 10 µM) | 0.314 GR | 0.0392 GR | -0.0403 GR | -0.0022 GR | -0.0701 GR | 0.0105 GR | -0.0563 GR | -0.0304 GR | -0.077 GR | -0.0429 GR | 0.275 GR | -0.0012 GR | 0.0582 GR |
| CCCCOc1c(C(=O)c2c(F)cc(C)cc2F)c[nH]c2nncc1-2 (max 10 µM) | 0.787 GR | 0.372 GR | 0.384 GR | 0.84 GR | 0.628 GR | 0.334 GR | 0.497 GR | 0.768 GR | 0.914 GR | 0.455 GR | 0.886 GR | 0.954 GR | 0.842 GR |
| CCN1CCN(Cc2ccc(Nc3ncc(F)c(-c4cc(F)c5nc(C)n(C(C)C)c5c4)n3)nc2)CC1 (max 10 µM) | 0.901 GR | 0.722 GR | 0.85 GR | 0.569 GR | 0.124 GR | 0.675 GR | 0.478 GR | 0.64 GR | 0.145 GR | 0.392 GR | 1.04 GR | 0.635 GR | 0.613 GR |
| CNc1nc(-c2ccc3c(N)n[nH]c3c2)cc(N2C[C@@H](C(=O)NC3CCCCC3)CC[C@H]2C)n1 (max 10 µM) | 0.59 GR | 0.498 GR | 0.266 GR | 0.0701 GR | 0.718 GR | 0.149 GR | 0.293 GR | 0.0564 GR | 0.288 GR | 0.0151 GR | 0.367 GR | 0.135 GR | -0.0192 GR |
| CO[C@@H](C)Cn1c(=O)n(C)c2cnc3ccc(-c4cncc(C(C)(C)O)c4)cc3c21 (max 10 µM) | 1.32 GR | 1.31 GR | 0.851 GR | 0.768 GR | 1.21 GR | 0.607 GR | 0.813 GR | 0.664 GR | 0.8 GR | 0.43 GR | 1.03 GR | 0.761 GR | 0.972 GR |
| Cc1nn(C)c(COc2ccc(N3CCN(S(=O)(=O)N(C)C)CC3)cc2)c1-c1cccc2c(CCCOc3cccc4ccccc34)c(C(=O)O)n(CCN3CCOCC3)c12 (max 10 µM) | 0.0271 GR | 0.0479 GR | -0.0756 GR | -0.0396 GR | -0.123 GR | 0.0519 GR | -0.0581 GR | 0.0151 GR | 0.0018 GR | -0.0123 GR | 0.0654 GR | 0.0952 GR | 0.0026 GR |
| CN(C)CC[C@H](CSc1ccccc1)Nc1ccc(S(=O)(=O)NC(=O)c2ccc(N3CCN(Cc4ccccc4-c4ccc(Cl)cc4)CC3)cc2)cc1[N+](=O)[O-] [ABT-737] (max 10 µM) | 0.0499 GR | 0.189 GR | -0.0061 GR | 0.0208 GR | 0.224 GR | 0.162 GR | 0.111 GR | 0.296 GR | 0.0935 GR | -0.111 GR | 0.276 GR | 0.153 GR | 0.0008 GR |
| C=CCn1c(=O)c2cnc(Nc3ccc(N4CCN(C)CC4)cc3)nc2n1-c1cccc(C(C)(C)O)n1 [AZD1775] (max 10 µM) | 0.587 GR | 0.655 GR | 0.563 GR | 0.198 GR | 0.334 GR | 0.606 GR | 0.23 GR | 0.961 GR | 1.15 GR | 0.847 GR | 0.34 GR | 0.366 GR | 0.0364 GR |
| CNC(=O)c1cccc(-c2ccc3c(N4CCOC[C@@H]4C)nc(N4CCOC[C@@H]4C)nc3n2)c1 [AZD2014] (max 10 µM) | 1.35 GR | 1.38 GR | 0.692 GR | 0.484 GR | 1.39 GR | 0.405 GR | 0.829 GR | 0.418 GR | 0.778 GR | 0.349 GR | 1.13 GR | 0.729 GR | 0.873 GR |
| NC1(C(=O)N[C@@H](CCO)c2ccc(Cl)cc2)CCN(c2nc[nH]c3nccc2-3)CC1 [AZD5363] (max 10 µM) | 0.622 GR | 0.52 GR | 0.234 GR | 0.298 GR | 1.44 GR | -0.0246 GR | 0.304 GR | 0.0939 GR | 0.661 GR | 0.0705 GR | 0.2 GR | 0.122 GR | 0.583 GR |
